The numbers were not newly measured in patent publication US20030198597A1, “Novel macrocyclic activatible magnetic resonance imaging contrast agents” (priority 2002, published 2003), which cites them from elsewhere.

For this data set the following is noted: thermodynamic stability of the Gd3+ chelate complex; background statement.

Consider `O=C([O-])CN(CCN(CC(=O)[O-])CC(=O)[O-])CCN(CC(=O)[O-])CC(=O)[O-].[Gd+3]` [Gd(DTPA)^2−], for which the “stability constant (K) / formation constant, logK” value is reported as 22.4.

With `O=C([O-])CN1CCN(CC(=O)[O-])CCN(CC(=O)[O-])CCN(CC(=O)[O-])CC1.[Gd+3]` [Gd-DOTA], the “stability constant (K) / formation constant, logK” value is on record as 28.5.
